{"source": "patent US20050131077A1", "about": "“Preventing or reducing the adhesion of microorganisms with phytanetriol” (priority 2003, published 2005)", "system": "Staphylococcus aureus", "experiment": "Microbial antiadhesion test on reconstructed epidermis", "assay_type": "cell-based", "experimental": "Before bacterial adhesion, the reconstructed epidermis is placed in contact for 2 hours with the composition of Example 1 at 37° C. 1 ml of bacterial suspension of Staphylococcus aureus at a concentration of 10^7 microorganisms/ml in Tryptone salt is then added thereto. After incubation for 24 hours at 37° C., the bacterial suspension is emptied out and five rinsings are performed with 1 ml of sterile distilled water. The reconstructed epidermis detached from its support is then ground using a processor in 18 ml of Tryptone salt. […] The adherent and viable cells are then counted. […]\nA mixture of bacteria/test product, in the same ratio as in the antiadhesion test, is brought into contact for 24 hours at 37° C. The microorganisms are counted by tenfold dilution in Tryptone salt and inoculation, using a scraper, of 100 μl on Trypticase soybean agar. The colonies are counted after incubation for 24 hours at 37° C.\nThe quantitative results correspond to a reduction in the decimal logarithm of the mean number of viable Staphylococcus aureus adherent on the reconstructed epidermis after treatment with the test composition or test molecules, relative to the decimal logarithm of the mean number of viable Staphylococcus aureus adherent on the reconstructed epidermis after treating with water under the same conditions. […]", "data": [{"smiles": "CC(C)CCCC(C)CCCC(C)CCCC(C)(O)C(O)CO", "note": "(centres unmarked) [Pure phytanetriol, 3,7,11,15-tetramethyl-1,2,3-hexadecanetriol]", "values": [{"measurement": "Activity Antiadhesion, Quantitative results: reduction in the decimal logarithm of the mean number of viable Staphylococcus aureus adherent on the reconstructed epidermis relative to water", "setting": "reconstructed epidermis pretreated 2 hours at 37° C., S. aureus 10^7 microorganisms/ml, incubation 24 hours at 37° C., relative to treatment with water, significant if difference greater than 0.5 log", "value": "−1.9", "unit": "log"}, {"measurement": "Activity Antiadhesion, Qualitative results", "setting": "term as a function of Log reduction of adhesion after 24 hours relative to the same test using water", "value": "Good (between 1.5 and 2 log reduction relative to water)"}]}]}
